The text below walks through data of US7892755B2, “Screening method” (Takeda Pharmaceutical Company Limited, priority 2004, dated 2011).

Each structure is given as a SMILES string.

Holding throughout (type): cell-based
Assay [1] deals with T1, GPR35 (Homo sapiens, UniProt Q9HC97, S294R). Kind of assay: Suppression of forskolin-increased intracellular cAMP levels in human GPR35-expressed CHO cell line. To be noted: 2 μM forskolin, 37° C., 30 minutes (FIG. 3). Set-up: The resulting fragment (ca. 1 kb) was introduced into vector pAKKO-111; expressed in transfected cells. As for the experimental part: The human GPR35-expressed CHO cells obtained in REFERENCE EXAMPLE 1 were washed with an assay buffer (HBSS (Gibco/BRL) supplemented with 0.1% bovine serum albumin and 0.2 mM isobutylmethylxanthine), followed by incubation at 37° C. for 30 minutes under conditions of 5% CO2. DNQX and NBQX were diluted with the assay buffer and the dilutions were added to the cells at respective concentrations. Thereafter forskolin was added to become 2 μM. Incubation was performed at 37° C. for 30 minutes under conditions of 5% CO2. The culture supernatant was discarded and the intracellular cAMP level was assayed on a plate reader (EnVision, Perkin Elmer) in accordance with the protocol of cAMP Screen Kit (Applied Biosystems).
Background: Cyclic AMP is a second messenger, typically raised through Gs and lowered through Gi signalling.

In assay [2] the target is T1, GPR35. Kind of assay: Changes in intracellular calcium levels on FLIPR, CHO cell line stably co-expressing human GPR35 and Gα16. Set-up: expressed in transfected cells. As for the experimental part:
The Gα16-stably expressed cell line (Gα16/CHO cell line) as a host cell was prepared by transfecting the Gα16 expression vector (Guthrie cDNA Resource Center) into CHO cells in a conventional manner and incubating at 37° C. under 5% CO2 in αMEM medium (containing nucleic acid; Invitrogen) supplemented with 10% fetal calf serum (Invitrogen), 50 units/ml penicillin/50 ug/ml streptomycin (CAMBREX) and 1 mg/ml geneticin (Invitrogen). The cells that were incubated for 2 days in αMEM medium (containing nucleic acid) supplemented only with 10% fetal calf serum charged in a 75 cm^2 flask were used for the transfection. The transfection was carried out using Lipofectamine reagent (Invitrogen) by a modification of the protocol attached to the reagent. First, 2 centrifuge tubes each having a 15 ml volume were prepared and 600 μl each of Opti-MEM medium (Invitrogen) was dispensed in each tube. Next, 4.8 μg of the expression vector was charged in one tube and in another tube 36 μl of Lipofectamine reagent was charged, which were mixed together. The mixture was settled for 20 minutes at room temperature. […] The cells obtained were counted and diluted with αMEM medium (containing no nucleic acid; Invitrogen) supplemented only with 10% dialyzed fetal calf serum to have 0.3, 1.5 and 7.5 cells per 100 μl of the medium. […]
(In general: A change in cytosolic calcium serves as a functional read-out for many receptors and channels.)

The target of assay [3] is T1, GPR35. Kind of assay: MAPK phosphorylation (western blot, phospho-p44/42 MAP kinase) in human GPR35-expressed CHO cells. Also noted: The resulting fragment (ca. 1 kb) was introduced into vector pAKKO-111; expressed in transfected cells. To be noted: stimulation with 1-5 μM, 5 minutes. The method, then: The human GPR35-expressed CHO cells prepared in REFERENCE EXAMPLE 1 were incubated for 48 hours in a 12-well plate at 5×10^4 cells/well. MEMα (containing no nucleic acid) supplemented with 10% dialyzed FBS was used as a medium. After the medium was removed by suction, the cells were washed with 1 ml (×2) of serum-free medium and 500 μl of the serum-free medium was added thereto, followed by incubation at 37° C. for 16 hours. DNQX or NBQX was added to the cells at its optimum concentration, followed by incubation at 37° C. for 5 minutes. Immediately after the medium was removed by suction, 50 μl of Blue Loading Buffer (BioLabs) was added, the cells were lysed and taken up by pipetting. The cell lysate was destructed using a sonicator (Sono Cleaner; KAIJO DENKI) and then heat-treated at 95° C. for 5 minutes. Centrifugation (15,000 rpm, 4° C., 5 minutes) was made and the supernatant was used as a final sample.
After 10 μl of the sample was electrophoresed on 10% SDS-PAGE, the sample was transferred to a PVDF membrane by western blotting. The membrane was immersed in Block Ace (manufactured by Dainippon Pharmaceutical Co., Ltd.) and then shaken for an hour at room temperature. […] The membrane was applied to a fluorescence detector (LAS-1000; FUJI FILM) in accordance with the protocol of ECLplus Western Blotting System (Amersham Biosciences). […]

T1 sequence (Q9HC97 whole entry S294R, the tested form may be a part): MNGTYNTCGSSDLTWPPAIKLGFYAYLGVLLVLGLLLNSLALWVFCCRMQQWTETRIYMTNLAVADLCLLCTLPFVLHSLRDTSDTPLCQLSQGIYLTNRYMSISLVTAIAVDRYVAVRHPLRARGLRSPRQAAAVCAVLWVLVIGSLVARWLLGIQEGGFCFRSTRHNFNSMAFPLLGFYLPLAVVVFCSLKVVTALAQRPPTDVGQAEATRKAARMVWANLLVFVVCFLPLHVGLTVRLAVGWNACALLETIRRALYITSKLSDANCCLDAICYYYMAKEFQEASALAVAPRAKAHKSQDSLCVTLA

As to `O=C1N=c2cc([N+](=O)[O-])c([N+](=O)[O-])cc2=NC1=O` [DNQX, 6,7-dinitroquinoxaline-2,3-dione], the “decrease of intracellular cAMP levels increased by forskolin addition” value at GPR35 [1] is “dose-dependent and specific decrease”. The intracellular calcium levels result on GPR35 [2] was “increased”. For the same compound, the “level of phosphorylated MAP-kinase” value on GPR35 [3] is “enhanced”.

For `NS(=O)(=O)c1cccc2c3c(cc([N+](=O)[O-])c12)=NC(=O)C(=O)N=3` [NBQX, 6-nitro-7-sulfamoylbenzo[f]quinoxaline-2,3-dione], on GPR35 [1], the “decrease of intracellular cAMP levels increased by forskolin addition” value was “dose-dependent and specific decrease”. For the same compound, the “level of phosphorylated MAP-kinase” value at GPR35 [3] is “enhanced”.
